Experimental data taken from PubChem BioAssay AID1508612.

Test: passive permeability, PAMPA, ADME assay (AID 1508612)
Details: pH 7.4, 30.0 min, 50.0 µM

Row | Compound | Papp
1 | CCN1C(=O)c2ccccc2S(=O)c2ccc(C(=O)NCc3ccc(OC)cc3)cc21 (centres undefined) | 883 ×10⁻⁶ cm/s
2 | CN1CCN(C(=O)Cc2c[nH]c3ncc(-c4ccccc4Oc4ccccc4)cc23)CC1 | > 1000 ×10⁻⁶ cm/s
3 | O=C1CCc2ccc(OCCCCN3CCN(c4cccc(Cl)c4Cl)CC3)cc2N1 | > 1000 ×10⁻⁶ cm/s
4 | COc1ccc(-c2csc(CCn3nc(C)c4c(C(F)(F)F)cc(=O)[nH]c43)n2)cc1 | 825 ×10⁻⁶ cm/s
5 | COc1ccc(CNc2ccc(S(=O)(=O)Nc3nccs3)cc2)c(O)c1 | < 1 ×10⁻⁶ cm/s
6 | COc1cccc(CNc2ccc(S(=O)(=O)Nc3cccc4ccncc34)cc2)c1O | > 1000 ×10⁻⁶ cm/s
7 | CC[C@@]1(O)C(=O)OCc2c1cc1n(c2=O)Cc2cc3ccccc3nc2-1 | 68.3 ×10⁻⁶ cm/s
8 | Cc1ccc(-c2cc(C(=O)Nc3ccc(S(=O)(=O)Nc4ccc(C#N)cc4)cc3)c3ccccc3n2)cc1C | < 1 ×10⁻⁶ cm/s
9 | CCOc1ccc(CCNC(=O)c2cc3ccccc3o2)cc1OCC | > 1000 ×10⁻⁶ cm/s
10 | O=C(NCc1ccco1)c1nc2nc(-c3cccs3)cc(C(F)(F)F)n2n1 | 257 ×10⁻⁶ cm/s
11 | FC(F)(F)c1ccccc1-c1nc(NCc2ccc(-c3cccnc3)cc2)c2ccccc2n1 | 786 ×10⁻⁶ cm/s
12 | Nc1c(C(=O)Nc2ccc(Cl)c(C(F)(F)F)c2)sc2nc3c(cc12)N1CCC3CC1 | > 1000 ×10⁻⁶ cm/s
13 | O=C(c1ccc(C(=O)N2CCC(N3CCCC3)CC2)c(Nc2ccccc2)c1)N1CCC(N2CCCC2)CC1 | 7.61 ×10⁻⁶ cm/s
14 | NC(=O)C1CCN(c2nc(-c3ccccc3)cs2)CC1 | 598 ×10⁻⁶ cm/s
15 | O=C1c2ccccc2C2=Nc3ccccc3SC(c3ccccc3F)C12 (centres undefined) | < 1 ×10⁻⁶ cm/s
16 | CC(=O)c1ccc(N2CCN(S(=O)(=O)c3ccc4c(c3)n(C)c(=O)n4C)CC2)cc1 | 306 ×10⁻⁶ cm/s
17 | CNc1oc(-c2ccccc2-c2ccccc2)nc1C#N | 906 ×10⁻⁶ cm/s
18 | Cc1ccc(S(=O)(=O)Nc2cnccc2C(=O)Nc2ccc(-n3cncn3)cc2)cc1 | 8.29 ×10⁻⁶ cm/s
19 | CCOC(=O)c1c[nH]c2c3c(ccc2c1=O)CCCC3 | 434 ×10⁻⁶ cm/s
20 | Cc1ccc(-c2cc(C(=O)Nc3ccc(C#N)cc3)c3ccccc3n2)cc1C | 285 ×10⁻⁶ cm/s
21 | Cc1nc(Nc2n[nH]c3c2CN(C(=O)N[C@H](CN(C)C)c2ccccc2)C3(C)C)c2sccc2n1 | 2.31 ×10⁻⁶ cm/s
22 | OCc1cccc(-c2cc(-c3cccnc3)c3cncn3c2)c1 | 76 ×10⁻⁶ cm/s
23 | [2H]C([2H])(Nc1nc(-c2ccccc2C([2H])(C([2H])([2H])[2H])C([2H])([2H])[2H])ncc1C)c1ccc(-n2ccnn2)cc1 | > 1000 ×10⁻⁶ cm/s
24 | Cc1ccnc(NC(=O)C2CC(=O)N(c3n[nH]c4cc(Br)ccc34)C2)c1 (centres undefined) | 563 ×10⁻⁶ cm/s
25 | Cc1ccccc1C(=O)N1CCc2cc(-c3nc(NC(=O)Cc4ccc5c(c4)OCCO5)sc3C)ccc21 | 761 ×10⁻⁶ cm/s
26 | Cc1cc(C)c(CNC(=O)c2nc(-c3cccc(CO)c3)cc3c2ccn3C)c(=O)[nH]1 | > 1000 ×10⁻⁶ cm/s
27 | CC(=O)Nc1ccc(C(=O)Nc2ccc3c(c2)N(C2CCCC2)C(=O)c2ccccc2S3)cc1 | 138 ×10⁻⁶ cm/s
28 | COC(=O)c1ccnc(-c2cc(C(=O)NCCc3ccccc3)ccn2)c1 | 398 ×10⁻⁶ cm/s

Row | Compound | Papp
29 | COC(=O)c1ccc(NS(=O)(=O)c2c(C)nc3sccn3c2=O)cc1 | 333 ×10⁻⁶ cm/s
30 | CCN1CCN(c2ncc3c(n2)CCN(Cc2cc(Br)cs2)C3)CC1 | 787 ×10⁻⁶ cm/s
31 | Nc1nc(N)c2cc(Sc3ccc4ccccc4c3)ccc2n1 | 461 ×10⁻⁶ cm/s
32 | N#CC1CCN(c2nc(-c3ccc(Br)cc3)cs2)CC1 | 671 ×10⁻⁶ cm/s
33 | CCC(CC)C(=O)NC[C@@H]1C=C(C)[C@H](Cc2nc3c(C)cccc3[nH]2)C[C@H]1C(C)C | > 1000 ×10⁻⁶ cm/s
34 | c1ccc2[nH]c(Nc3nc(-c4ccncc4)nc4ccccc34)nc2c1 | > 1000 ×10⁻⁶ cm/s
35 | Cc1ccc(-n2c(C)cc(C3=NNC(=NC4CC4)SC3)c2C)cc1C | > 1000 ×10⁻⁶ cm/s
36 | COC1C(OC(=O)c2ccc(C)[nH]2)C(O)C(Oc2ccc3c(O)c(NC(=O)c4ccc(O)c(CC=C(C)C)c4)c(=O)oc3c2Cl)OC1(C)C (centres undefined) | 7.04 ×10⁻⁶ cm/s
37 | COc1ccc(-n2cnc3cc(C(=O)N4CCCCC4)ccc32)cc1 | 624 ×10⁻⁶ cm/s
38 | CC1CC(C)(C)N(C(=O)CN2C(=O)c3ccccc3C2=O)c2ccccc21 (centres undefined) | > 1000 ×10⁻⁶ cm/s
39 | CCOC(=O)c1ccc(N2C(=O)c3[nH]nc(-c4ccc(OC)cc4)c3C2c2ccc(C)cc2)cc1 (centres undefined) | 17.7 ×10⁻⁶ cm/s
40 | CCc1ccc(-n2nc(C)c3c2NC(=O)CSC3c2ccccc2C)cc1 (centres undefined) | 707 ×10⁻⁶ cm/s
41 | CCOc1ccc(CCNC(=O)c2cc3sccc3n2CCN2CCOCC2)cc1OCC | > 1000 ×10⁻⁶ cm/s
42 | Fc1cnc(-c2ccccc2C(F)F)nc1NCc1ccc(-c2ccn[nH]2)cc1 | > 1000 ×10⁻⁶ cm/s
43 | COc1cc(NC(=O)c2nc3ccccc3n(C)c2=O)cc(OC)c1OC | 145 ×10⁻⁶ cm/s
44 | CN(C)CCCN1c2ccc(O)cc2Sc2ccc(Cl)cc21 | > 1000 ×10⁻⁶ cm/s
45 | Cc1cccc(-n2cnc3cc(C(=O)N4CCCC(C)(C)C4)ccc32)c1 | > 1000 ×10⁻⁶ cm/s
46 | CN(C)c1cccc(-c2nc(N3CCC(C(N)=O)CC3)ncc2F)c1 | 780 ×10⁻⁶ cm/s
47 | Cn1cnc(S(=O)(=O)Nc2cnccc2C(=O)Nc2nc(-c3ccccc3)cs2)c1 | 1.1 ×10⁻⁶ cm/s
48 | Cc1ccc(O)c(-c2cc(-c3ccccc3C)[nH]n2)c1 | 511 ×10⁻⁶ cm/s
49 | COc1ccc(NC(=O)c2[nH]c(C)c(C(C)=O)c2C)cc1[S+](=O)([O-])Nc1ccccc1C#N | 71 ×10⁻⁶ cm/s
50 | CCOC(=O)N1CCN(Cc2nc3cc(NC(=O)c4ccc(OC)cc4)ccc3n2C(C)C)CC1 | > 1000 ×10⁻⁶ cm/s
51 | COc1ccc(-c2nc(-c3c(C)noc3C)cc3c2cc(C)n3CCN(C)C)cc1OC | > 1000 ×10⁻⁶ cm/s
52 | CN(Cc1ccccc1)C(=O)C1CCN(Cc2cccc3ccccc23)CC1 | > 1000 ×10⁻⁶ cm/s
53 | CCOc1ccccc1C(=O)NC1CCN(c2cc(C)cc(C)c2)C1=O (centres undefined) | > 1000 ×10⁻⁶ cm/s
54 | O=C(Nc1ccc(Cl)cc1)Nc1ccc(Cl)c(Cl)c1 | 240 ×10⁻⁶ cm/s
55 | O=C1CCCC2=C1C(c1ccncc1Br)N=C(Nc1nc3ccccc3o1)N2 (centres undefined) | > 1000 ×10⁻⁶ cm/s

The next lines start with the values.

Row | Papp | Compound
56 | 19.3 ×10⁻⁶ cm/s | Nc1nc2c(s1)C(c1ccccc1)CC(=O)N2 (centres undefined)
57 | > 1000 ×10⁻⁶ cm/s | O=c1[nH]c(N2CCOCC2)nc2c1CCN(Cc1ccc(Cl)cc1F)CC2
58 | 86.8 ×10⁻⁶ cm/s | NC(=O)C1CCN(c2nc(-c3cccc(N)c3)cs2)CC1
59 | 53.5 ×10⁻⁶ cm/s | O=C(Nc1cc(C(F)(F)F)ccc1N1CCOCC1)c1n[nH]c(=O)c2ccccc12
60 | 996 ×10⁻⁶ cm/s | CN(C)CCOC1=Cc2ccccc2Sc2ccc(Cl)cc21
61 | 68.9 ×10⁻⁶ cm/s | CC(=O)c1c(C)[nH]c(C(=O)Nc2cccc(S(=O)(=O)Nc3cccc(C#N)c3)c2)c1C
62 | > 1000 ×10⁻⁶ cm/s | O=C(Nc1nc(-c2ccccc2)cs1)c1ccncc1NS(=O)(=O)c1ccc2ccccc2c1
63 | 341 ×10⁻⁶ cm/s | CC[C@H](C)[C@@H]([C@@H](CC(=O)N1CCC[C@H]1[C@H](OC)[C@@H](C)C(=O)N[C@@H](Cc1ccccc1)c1nccs1)OC)N(C)C(=O)[C@@H](NC(=O)[C@H](C(C)C)N(C)C)C(C)C
64 | 6 ×10⁻⁶ cm/s | Cc1ccc(-c2cc(C(=O)Nc3ccc(S(=O)(=O)NCc4nccs4)cc3)c3ccccc3n2)cc1C
65 | 645 ×10⁻⁶ cm/s | CCN(CC)[S+](=O)([O-])c1cc(NC(=O)c2[nH]c(C)c(C(C)=O)c2C)ccc1OC
66 | 14.4 ×10⁻⁶ cm/s | CNc1nc(-c2ccc3c(N)n[nH]c3c2)cc(N2C[C@@H](C(=O)NC3CCCCC3)CC[C@@H]2C)n1
67 | 374 ×10⁻⁶ cm/s | NC(=O)C1CCN(c2ncc(-c3cccc(N4CCOCC4)c3)s2)CC1
68 | 70 ×10⁻⁶ cm/s | Cc1nc2ccc(NC(=O)c3cc(S(=O)(=O)N(C)c4ccccc4)ccc3Cl)cc2s1
69 | 387 ×10⁻⁶ cm/s | COc1ccccc1S(=O)(=O)Nc1cnccc1C(=O)Nc1nc(-c2ccccc2)cs1
70 | 101 ×10⁻⁶ cm/s | O=C(c1ccc2ncccc2c1)N1CCc2c(nc3cc[nH]n3c2=O)C1
71 | 412 ×10⁻⁶ cm/s | COCCNc1ncc(-c2cccc(O)c2)c2c1OCC2
72 | > 1000 ×10⁻⁶ cm/s | CC(C)Oc1ccc(-c2csc(N3CCC(C(N)=O)CC3)n2)cc1
73 | 527 ×10⁻⁶ cm/s | O=C(c1ccc2ccccc2c1)N1CCN(c2ccc(O)cc2)CC1
74 | 16.6 ×10⁻⁶ cm/s | Cc1ccc(S(=O)(=O)Nc2ccccc2C(=O)Nc2nc(-c3ccc(Cl)cc3)cs2)cc1
75 | 1.5 ×10⁻⁶ cm/s | O=C(Cc1ccc(Cl)c(Cl)c1)Nc1ccc(S(=O)(=O)Nc2nncs2)cc1
76 | 971 ×10⁻⁶ cm/s | COc1ccc(Cl)cc1C(=O)Nc1ccc(NC(=O)c2ccco2)cc1
77 | > 1000 ×10⁻⁶ cm/s | CCOc1ccc(CCNC(=O)c2cc3c(s2)CCC3)cc1OCC
78 | 517 ×10⁻⁶ cm/s | COc1ccc(-c2noc([C@@H]3Cc4nc[nH]c4CN3C(=O)NC3CCCCC3)n2)cc1
79 | 938 ×10⁻⁶ cm/s | CCNC(=O)c1coc(COc2ccc3c(c2)C(c2ccc(F)cc2)N(C(=O)CC(C)C)CC3)n1 (centres undefined)
80 | 147 ×10⁻⁶ cm/s | Cc1ccc(C2=NN=C(NC(=O)CSc3nncn3C)SC2)cc1

Row | Papp | Compound
81 | > 1000 ×10⁻⁶ cm/s | Cc1cnc(-c2ccccc2C2CC2)nc1NCc1ccc(-c2cccnc2)cc1
82 | 39.9 ×10⁻⁶ cm/s | COc1ccc(-c2ccc(Nc3nc(-c4ccncc4)nc4ccccc34)cc2F)cc1F
83 | 2.4 ×10⁻⁶ cm/s | COc1cc2nc(N3CCCC3)nc(NCCCCCN3CCCC3)c2cc1OC
84 | > 1000 ×10⁻⁶ cm/s | Fc1cnc(-c2ccccc2C(F)F)nc1NCC1CCN(c2cnccn2)CC1
85 | < 1 ×10⁻⁶ cm/s | CCn1c(-c2nonc2N)nc2cnc(Oc3cccc(NC(=O)c4ccc(OCCN5CCOCC5)cc4)c3)cc21
86 | 607 ×10⁻⁶ cm/s | c1ccc(-c2nnc3n2NC(c2ccc4c(c2)OCO4)S3)cc1 (centres undefined)
87 | > 1000 ×10⁻⁶ cm/s | Cc1ccc(-n2ncc3c(NCCCn4ccnc4)ncnc32)cc1Cl
88 | 833 ×10⁻⁶ cm/s | Cc1ccc(CSCc2ccc(C(=O)NC3CC3)o2)cc1
89 | 9.71 ×10⁻⁶ cm/s | CC(C)c1ccc2oc3nc(N)c(C(=O)O)cc3c(=O)c2c1
90 | > 1000 ×10⁻⁶ cm/s | O=C(CCCN1CCC(O)(c2cccc(C(F)(F)F)c2)CC1)c1ccc(F)cc1
91 | > 1000 ×10⁻⁶ cm/s | COC(=O)c1ccc(Oc2nc3c(c(=O)n(C)c(=O)n3C)n2CCC(C)C)cc1
92 | > 1000 ×10⁻⁶ cm/s | OC1(c2ccc(Cl)cc2)CCN(Cc2c[nH]c3ccccc23)CC1
93 | 266 ×10⁻⁶ cm/s | CC(=O)Nc1cccc(Nc2nc3ccccc3n3c(C)nnc23)c1
94 | 187 ×10⁻⁶ cm/s | CCOC(=O)c1nn(-c2ccc(OC)cc2)c(=O)c2c(N)scc12
95 | 406 ×10⁻⁶ cm/s | NC(=O)C1CCN(c2nc(-c3ccc4ccccc4c3)cs2)CC1
96 | 1.8 ×10⁻⁶ cm/s | Cc1ccc(NC(=O)CSc2ncc(S(=O)(=O)c3ccc(C(C)C)cc3)c(=O)[nH]2)cc1C
97 | > 1000 ×10⁻⁶ cm/s | O=C(Nc1ccc2c(N3CCOCC3)ncnc2c1)c1cccc(Br)c1
98 | > 1000 ×10⁻⁶ cm/s | CC(=O)N[C@H]1CN(C2CCN(c3ccc(F)cc3C)CC2)C[C@@H]1C1CC1
99 | < 1 ×10⁻⁶ cm/s | CC(=O)c1ccc(N2CCN(S(=O)(=O)c3ccc4[nH]c(=O)[nH]c4c3)CC2)cc1
100 | 569 ×10⁻⁶ cm/s | Cc1ccccc1C(=O)N1CCc2cc(-c3nc(NC(=O)c4ccc5c(c4)OCO5)sc3C)ccc21
101 | 61.8 ×10⁻⁶ cm/s | N#Cc1ccccc1S(=O)(=O)Nc1cnccc1C(=O)Nc1nc(-c2ccccc2)cs1
102 | 97.8 ×10⁻⁶ cm/s | Cc1ccccc1C(=O)NC1CCN(c2ccc3nnc(C4CC4)n3n2)CC1
103 | 294 ×10⁻⁶ cm/s | O=c1cc(N2CCOCC2)oc2c1ccc1ccccc12
104 | > 1000 ×10⁻⁶ cm/s | COc1ccccc1N1CCN(CCN(C(=O)c2ccc(F)cc2)c2ccccn2)CC1
